Experimental data as given in PMC10247784, “Physiological activation of human and mouse bitter taste receptors by bile acids” (Communications Biology, 2023).
Values joined by “and” are separate entries in the source; they are usually repeats but may differ in a detail not shown here. Equal entries are not always repeated.

Key:
[1] = tested on: HEK293T-Gα16gust44 cells transfected with empty vector (mock); assay: Calcium imaging assay (FLIPR), empty vector control (mock); type: cell-based
Method: (§1) This set of bile acids was chosen because of their commercial availability in high purities, their diversity within the class of bile acids and their previous detection and quantitation in human blood. Stock solutions were prepared in DMSO.
(§2) As basal growth medium for the HEK293T-Gα16gust44 cell line[17],[59] served Dulbecco’s modified eagle medium (DMEM) (Thermo Fisher Scientific, Darmstadt, Germany) supplemented with 10 % fetal bovine serum (Sigma-Aldrich, Steinheim, Germany), 2 mM L-glutamine (Sigma-Aldrich, Steinheim, Germany), 100 units/ml penicillin (Sigma Aldrich, Steinheim, Germany) and 100 µg/ml streptomycin (Sigma Aldrich, Steinheim, Germany). Growth conditions were 37 °C, 5 % CO2 and saturated air-humidity[60].
(§3) HEK293T-Gα16gust44 cells were seeded on poly-D-lysine (10 µg/ml) coated 96-well plates to reach a confluence of 40-60 % the next day. For transient transfection 150 ng of plasmid DNA containing the receptor of interest and 0.3 µl lipofectamine 2000 (Thermo Fisher Scientific, Darmstadt, Germany) per well were used and transfection took place according to the manual of lipofectamine 2000. […] The empty vector DNA (mock) was transfected as negative control[14],[41].
(§4) Cells were loaded using the calcium-sensitive fluorescent dye Fluo-4-AM (Abcam, Cambridge, Great Britain) in the presence of 2.5 mM probenecid (Sigma-Aldrich, Steinheim, Germany) the day after transfection[13],[41]. 1 h after loading, cells were washed with C1 buffer using a BioTek Cell Washer, incubated in the dark for half an hour and washed again. For automated agonist application and measurement of fluorescence changes, a FLIPR^TETRA device (Molecular Devices, San José, United States) was used. Viability of cells was tested by application of 100 nM Somatostatin 14 (Bachem, Bubendorf, Switzerland)[42].
(§5) Measured data were negative control corrected by subtracting the signal of the mock-transfected cells and exported to Microsoft Excel using the FLIPR software ScreenWorks 4.2. In Microsoft Excel software, standardization of maximum fluorescence intensities to the basal fluorescence and normalization to the buffer-only control was done to calculate the relative fluorescence changes (ΔF/F).
(§6) Initial screening experiments performed in duplicate wells were confirmed by at least one replication and representative traces were selected for display. All dose-response relationships were determined by three independent experiments (biological replicates) performed in duplicates (technical replicates). Threshold concentrations, defined as lowest substance concentrations leading to statistically significant elevated fluorescence changes in receptor-transfected cells compared with empty vector-transfected cells, were determined using SigmaPlot with Student’s t-test to evaluate statistical significance (p < 0.01).

human TAS2R46 = biological target: T1, human TAS2R46 (Homo sapiens, UniProt P59540); assay: Calcium imaging assay (FLIPR), HEK293T-Gα16gust44 cells transfected with human TAS2R46; type: cell-based; settings: for Efficacy (signal amplitude) versus control stimulus, TAS2R46: highest applied concentrations, control 10 µM strychnine
T1 construct: expressed in transfected cells; host or cells: HEK293T-Gα16gust44
T1 sequence (P59540 1-309): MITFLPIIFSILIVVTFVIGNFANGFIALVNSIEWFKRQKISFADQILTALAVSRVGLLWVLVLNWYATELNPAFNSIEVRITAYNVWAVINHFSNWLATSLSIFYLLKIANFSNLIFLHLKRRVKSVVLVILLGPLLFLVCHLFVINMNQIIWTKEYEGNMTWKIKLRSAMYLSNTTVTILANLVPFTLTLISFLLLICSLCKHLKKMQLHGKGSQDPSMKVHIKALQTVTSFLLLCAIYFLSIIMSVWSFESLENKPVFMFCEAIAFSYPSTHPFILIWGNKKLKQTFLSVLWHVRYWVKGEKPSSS
Method: as §1, §2, §3, §4, §5, §6

C[C@H](CCC(=O)NCCS(=O)(=O)O)[C@H]1CC[C@H]2[C@@H]3CC[C@@H]4C[C@H](O)CC[C@]4(C)[C@H]3CC[C@]12C [Taurolithocholic Acid, taurolithocholic acid]
Δ F/F ([1]; Mock (sheet Tas2r144), conc. 0,01 mM): 0.0005692
Δ F/F ([1]; Mock (sheet Tas2r144), conc. 0,1 mM): 0.004595
Δ F/F ([1]; Mock (sheet Tas2r144), conc. 0,03 mM): 0.0003601
Δ F/F ([1]; Mock (sheet Tas2r144), conc. 0,00003 mM): 0.006114
Δ F/F ([1]; Mock (sheet Tas2r144), conc. 0,0001 mM): 0.006504
Δ F/F ([1]; Mock (sheet Tas2r144), conc. 0,0003 mM): 0.0008548
Δ F/F ([1]; Mock (sheet Tas2r144), conc. 0,001 mM): 0.004624
Δ F/F ([1]; Mock (sheet Tas2r144), conc. 0,003 mM): 0.001997
Δ F/F ([1]; Mock, sheet TAS2R4, conc. 0,01 mM): -0.008514
Δ F/F ([1]; Mock, sheet TAS2R4, conc. 0,1 mM): -0.00794
Δ F/F ([1]; Mock, sheet TAS2R4, conc. 0,03 mM): -0.01099
Δ F/F ([1]; Mock, sheet TAS2R4, conc. 0,000001 mM): -0.003137
Δ F/F ([1]; Mock, sheet TAS2R4, conc. 0,000003 mM): -0.007155
Δ F/F ([1]; Mock, sheet TAS2R4, conc. 0,00001 mM): -0.00504
Δ F/F ([1]; Mock, sheet TAS2R4, conc. 0,00003 mM): -0.003977
Δ F/F ([1]; Mock, sheet TAS2R4, conc. 0,0001 mM): -0.003234
Δ F/F ([1]; Mock, sheet TAS2R4, conc. 0,0003 mM): -0.004056
Δ F/F ([1]; Mock, sheet TAS2R4, conc. 0,001 mM): -0.007019
Δ F/F ([1]; Mock, sheet TAS2R14, conc. 0,01 mM): -0.03147
Δ F/F ([1]; Mock, sheet TAS2R14, conc. 0,00001 mM): -0.004277
Δ F/F ([1]; Mock, sheet TAS2R14, conc. 0,00003 mM): -0.0006944
Δ F/F ([1]; Mock, sheet TAS2R14, conc. 0,0001 mM): -0.01329
Δ F/F ([1]; Mock, sheet TAS2R14, conc. 0,0003 mM): -0.01832
Δ F/F ([1]; Mock, sheet TAS2R14, conc. 0,001 mM): -0.01976
Δ F/F ([1]; Mock, sheet TAS2R14, conc. 0,003 mM): -0.0246
Δ F/F ([1]; Mock, sheet TAS2R46, conc. 0,01 mM): -0.02971
Δ F/F ([1]; Mock, sheet TAS2R46, conc. 0,1 mM): -0.009753
Δ F/F ([1]; Mock, sheet TAS2R46, conc. 0,03 mM): -0.03052
Δ F/F ([1]; Mock, sheet TAS2R46, conc. 0,0001 mM): -0.0128
Δ F/F ([1]; Mock, sheet TAS2R46, conc. 0,0003 mM): -0.01683
Δ F/F ([1]; Mock, sheet TAS2R46, conc. 0,001 mM): -0.02076
Δ F/F ([1]; Mock, sheet TAS2R46, conc. 0,003 mM): -0.0306
Δ F/F ([1]; Mock, sheet Tas2r108, conc. 0,01 mM): -0.02695
Δ F/F ([1]; Mock, sheet Tas2r108, conc. 0,1 mM): -0.01465
Δ F/F ([1]; Mock, sheet Tas2r108, conc. 0,03 mM): -0.03132
Δ F/F ([1]; Mock, sheet Tas2r108, conc. 0,00001 mM): -0.01948
Δ F/F ([1]; Mock, sheet Tas2r108, conc. 0,00003 mM): -0.01658
Δ F/F ([1]; Mock, sheet Tas2r108, conc. 0,0001 mM): -0.01596
Δ F/F ([1]; Mock, sheet Tas2r108, conc. 0,0003 mM): -0.01689
Δ F/F ([1]; Mock, sheet Tas2r108, conc. 0,001 mM): -0.02887
Δ F/F ([1]; Mock, sheet Tas2r108, conc. 0,003 mM): -0.03792
Δ F/F ([1]; conc. 0,01 mM, Mock (sheet TAS2R1)): 0.0009651
Δ F/F ([1]; conc. 0,03 mM, Mock (sheet TAS2R1)): -0.0002852
Δ F/F ([1]; conc. 0,000001 mM, Mock (sheet TAS2R1)): 0.0003466
Δ F/F ([1]; conc. 0,000003 mM, Mock (sheet TAS2R1)): 0.0002774
Δ F/F ([1]; conc. 0,00001 mM, Mock (sheet TAS2R1)): -0.0001438
Δ F/F ([1]; conc. 0,00003 mM, Mock (sheet TAS2R1)): 0.0007699
Δ F/F ([1]; conc. 0,0001 mM, Mock (sheet TAS2R1)): -0.00173
Δ F/F ([1]; conc. 0,0003 mM, Mock (sheet TAS2R1)): 0.00111
Δ F/F ([1]; conc. 0,001 mM, Mock (sheet TAS2R1)): 0.001414
Δ F/F ([1]; conc. 0,003 mM, Mock (sheet TAS2R1)): -0.000959
Efficacy = maximal amplitude (ΔF/F) (human TAS2R46; TAS2R46, bile acids, mean): 0.2226
Efficacy (maximal amplitude ΔF/F), individual data points (human TAS2R46; TAS2R46, bile acids, single replicates, listed as TLCA): 0.2236 and 0.2143 and 0.2299
Efficacy (signal amplitude) versus control stimulus, TAS2R46 (human TAS2R46): about equal to that obtained for strychnine
Efficacy (signal amplitude) versus control stimulus, TAS2R46 (human TAS2R46; listed as TCLA): full agonist
Efficacy (signal amplitude) versus control stimulus, TAS2R46 (human TAS2R46; listed as TLCA): significantly higher than that of TCA and GCA and comparable to the control stimulus strychnine
Activation threshold concentration TAS2R46 (human TAS2R46; lowest concentration with significantly increased fluorescence vs empty vector (p < 0.01)): 0.3 µM
